How the values were obtained:
[1] = system: ALS subjects with pseudobulbar affect; test: Clinical Study #4: QOL and QOR visual analog scales; type: in vivo, human
Description: Subjects completed the CNS-LS questionnaire and visual analog scales assessing quality of life (QOL) and quality of relationships (QOR) every two weeks (Days 1, 15, and 29) during the treatment period. A clinical psychologist, or other approved clinician, administered the Hamilton Rating Scale for Depression (HRSD) at the Screening Visit and on Day 29. Safety was evaluated on Day 15 and Day 29 by examining adverse events, results of physical examinations, vital signs, clinical laboratory values, and resting electrocardiograms (ECGs). In addition to blood samples taken to provide clinical laboratory data, blood was also taken for pharmacokinetic analysis and CYP2D6 genotyping. Each subject completed a diary in which the number of episodes experienced, medications taken, and any adverse events were recorded daily.
(§1) The primary efficacy variable was the CNS-LS score. All efficacy variables involving a change were determined by the baseline score being subtracted from the mean of the non-missing scores on Days 15 and 29. The secondary efficacy variables were laughing/crying episodes, QOL scores, and QOR scores. […]
(§2) Secondary efficacy was assessed by using two, 10-cm visual analog scales (VAS). One scale asked subjects to rate how much uncontrollable laughter, tearfulness, or anger had affected the overall quality of their life during the past week, and one scale asked subjects to rate how much uncontrollable laughter, tearfulness, or anger had affected the quality of their relationships with others during the past week. Each scale required less than one minute to complete. The subjects recorded episodes of pathological laughing and crying in a diary daily.

[2] = type: in vivo
Text: An adverse event was any unfavorable and unintended sign (including an abnormal laboratory finding, for example), symptom, or disease temporally associated with the use of a medicinal product, whether or not considered related to the medicinal product. Changes associated with normal growth and development not varying in frequency or magnitude from that ordinarily anticipated clinically are not adverse events (for example, onset of menstruation occurring at a physiologically appropriate time). Clinical adverse events were described by diagnosis and not by symptoms when possible (for example, cold or seasonal allergies, instead of “runny nose”).
The severity of adverse events was graded on a 3-point scale and reported in detail as indicated on the Case Report Form: mild—easily tolerated, causing minimal discomfort, and not interfering with normal everyday activities; moderate—sufficiently discomforting to interfere with normal everyday activities; and severe—incapacitating and/or preventing normal everyday activities.
Subjects were instructed to promptly report any adverse event. The serious adverse event was assessed for the following details: seriousness of event, start date, stop date, intensity, frequency, relationship to test drug, action taken regarding test drug, treatment required, and outcome to date. These details were recorded on the Case Report Form. Such preliminary reports were followed by detailed descriptions that included copies of hospital case reports, autopsy reports, and other documents when requested and applicable.
Blood and urine were collected at the screening visit and Day 29 for clinical chemistry, hematology, urinalysis, and pregnancy testing. In the event of an abnormal laboratory test value, the test was repeated within one week, and the subject was followed up until the value returned to the normal range and/or until an adequate explanation of the abnormality was found.
Values were obtained for systolic and diastolic blood pressure, heart rate, and respiration rate on the screening visit and all other study visits. All values outside the pre-defined ranges were flagged in the subject data listings. Electrocardiography (twelve lead) was used to obtain ventricular rate (VR), QT, Q-Tc intervals, […] (PR), and QRS duration. A blood sample (10 mL whole blood) was taken from each subject at the Screening Visit for CYP2D6 genotyping to determine which subjects were poor metabolizers of DM and which were extensive metabolizers. Blood samples were taken on Day 29 for the determination of concentrations of DM, DX, and Q in plasma. The relationship between the concentration of drug in plasma and changes in CNS-LS scores was determined, and the effect of the CYP2D6 genotype on this relationship was evaluated.

[3] = system: ALS subjects with pseudobulbar affect; test: Clinical Study #4: laughing/crying episode counts (diary); type: in vivo, human
Description: Diary cards were collected on Day 15 and at the time of study completion.
as §1, §2
An analysis of secondary efficacy data was conducted.

[4] = All Days: mean of scores on Days 15 and 29 minus Day 1
[5] = ITT population, diary, weighted by days in the study
[6] = proportional-variance (constant dispersion) negative binomial model
[7] = quadratic-variance (mean dispersion) negative binomial model

COc1ccc2c(c1)[C@]13CCCCC1[C@H](C2)N(C)CC3 (single isomer, unassigned; (+)) [Dextromethorphan, (+)-3-methoxy-N-methylmorphinan]
Change in VAS QOL score, Max [1, 4]: 27 | Change in VAS QOL score, Mean [1, 4]: −17.41 | Change in VAS QOL score, Median [1, 4]: −11.0 | Change in VAS QOL score, Min [1, 4]: −90.5 | Change in VAS QOR score, Max [1, 4]: 23.5 | Change in VAS QOR score, Mean [1, 4]: −9.98 | Change in VAS QOR score, Median [1, 4]: −4.50 | Change in VAS QOR score, Min [1, 4]: −71.0 | Change in VAS QOL score, Max ([1]; Day 15 minus Day 1): 55 | Change in VAS QOL score, Mean ([1]; Day 15 minus Day 1): −17.14 | Change in VAS QOL score, Median ([1]; Day 15 minus Day 1): −13 | Change in VAS QOL score, Min ([1]; Day 15 minus Day 1): −90 | Change in VAS QOR score, Max ([1]; Day 15 minus Day 1): 34 | Change in VAS QOR score, Mean ([1]; Day 15 minus Day 1): −11.75 | Change in VAS QOR score, Median ([1]; Day 15 minus Day 1): −7 | Change in VAS QOR score, Min ([1]; Day 15 minus Day 1): −71 | Change in VAS QOL score, Max ([1]; Day 29 minus Day 1): 27 | Change in VAS QOL score, Mean ([1]; Day 29 minus Day 1): −19.31 | Change in VAS QOL score, Median ([1]; Day 29 minus Day 1): −7 | Change in VAS QOL score, Min ([1]; Day 29 minus Day 1): −91 | Change in VAS QOR score, Max ([1]; Day 29 minus Day 1): 26 | Change in VAS QOR score, Mean ([1]; Day 29 minus Day 1): −10.38 | Change in VAS QOR score, Median ([1]; Day 29 minus Day 1): −3.0 | Change in VAS QOR score, Min ([1]; Day 29 minus Day 1): −71 | Subjects with dizziness ([2]; 28 days, twice daily): 15.2% | Subjects with loose stools ([2]; 28 days, twice daily): Three | Subjects with nausea ([2]; 28 days, twice daily): 6.1% | Subjects with somnolence ([2]; 28 days, twice daily): 3.0% | Subjects who withdrew because of adverse events ([2]; human, in vivo, 29 days): 6.1% | CPK, change Baseline to Day 29 ([2]; relative to the 30DM/30Q group): significant increase in CPK | Weekly episode counts, Crying, Max ([3]; ITT population, diary): 21.00 | Weekly episode counts, Crying, Median ([3]; ITT population, diary): 0.70 | Weekly episode counts, Crying, Min ([3]; ITT population, diary): 0.00 | Weekly episode counts, Laughing, Max ([3]; ITT population, diary): 726.55 | Weekly episode counts, Laughing, Median ([3]; ITT population, diary): 2.50 | Weekly episode counts, Laughing, Min ([3]; ITT population, diary): 0.00 | Weekly episode counts, Laughing/Crying, Max ([3]; ITT population, diary): 726.55 | Weekly episode counts, Laughing/Crying, Median ([3]; ITT population, diary): 8.97 | Weekly episode counts, Laughing/Crying, Min ([3]; ITT population, diary): 0.00 | Weekly episode counts, Crying, Wtd. Mean [3, 5]: 4.30 | Weekly episode counts, Laughing, Wtd. Mean [3, 5]: 35.29 | Weekly episode counts, Laughing/Crying, Wtd. Mean [3, 5]: 39.58 | Total episodes, times greater than in the 30DM/30Q group ([3]; Poisson regression model with adjustment for center): 6.4 | Total episodes, ratio to the 30DM/30Q group ([3]; Poisson regression model, outlier omitted): 2.3 | Crying, estimated ratio relative to the named group [3, 6]: 2.0 | Laughing, estimated ratio relative to the named group [3, 6]: 1.4 | Total counts, estimated ratio relative to the named group [3, 6]: 1.7 | Laughing, estimated ratio relative to the named group ([3]; proportional-variance negative binomial model, outlier subject omitted): 1.5 | Crying rates, factor between 30DM/30Q and the named group [3, 7]: twice | Laughing rates, factor between 30DM/30Q and the named group [3, 7]: 2.6 | Total episode rates, factor between 30DM/30Q and the named group [3, 7]: 2.6
